In patent US4939137A, “Ring-fused thienopyrimidinedione derivatives” (Ortho Pharmaceutical Corporation, priority 1989, dated 1990):

Experiments:
[1] = test system: spontaneously hypertensive rats (SHR); experiment: Antihypertensive Activity: Spontaneously Hypertensive Rat (SHR test); assay type: in vivo, rat (male spontaneously hypertensive); conditions: Rattus norvegicus, p.o. or i.v., read-out: SHR TEST: change in blood pressure (delta % of control); for change in vivo at 5 mg/kg: dose 5 mpk
Method: Mean arterial pressure and heart rate were monitored from directly cannulated animals. Compounds were administered p.o. or i.v. and blood pressure was recorded for various time intervals post dosing.
Blood pressure changes (expressed as change in control pressure and reported as delta % of control for each animal) were analyzed statistically using a one way analysis of variance with a Dunnett's test. P values less than 0.05 were considered significant.

[2] = test system: alpha adrenergic receptor; experiment: Alpha-1 Adrenergic Blockage: Inhibition of Phenylephrine-Induced Increases in Blood Pressure in the Anesthetized Dog; assay type: in vivo; conditions: dose 0.03 mpk, i.v., phenylephrine 10 μg/kg
From the text: Dogs were anesthetized and bilaterally vagotomized. A femoral artery and vein were cannulated for detection of diastolic blood pressure and drug administration, respectively. Percent inhibition of alpha adrenergic receptor antagonism was quantified by determining dose-response (increase in diastolic pressure) relationship of phenylephrine before and after various doses of the antagonist.

5HT1A receptor = target: T1, 5HT1A receptor (Rattus norvegicus, UniProt P19327); experiment: Brain Serotonin 5HT1A Radioreceptor Assay (3H-80H-DPAT); assay type: binding; conditions: rat frontal cortex membranes, 10 minutes, 37° C., read-out: RECEPTOR BINDING 5HT-1A (IC50)
T1 construct: Membrane fragments were prepared from the frontal cortex dissected from brains obtained from female rats; from tissue; host or cells: frontal cortex, female rats
T1 sequence (P19327 1-422): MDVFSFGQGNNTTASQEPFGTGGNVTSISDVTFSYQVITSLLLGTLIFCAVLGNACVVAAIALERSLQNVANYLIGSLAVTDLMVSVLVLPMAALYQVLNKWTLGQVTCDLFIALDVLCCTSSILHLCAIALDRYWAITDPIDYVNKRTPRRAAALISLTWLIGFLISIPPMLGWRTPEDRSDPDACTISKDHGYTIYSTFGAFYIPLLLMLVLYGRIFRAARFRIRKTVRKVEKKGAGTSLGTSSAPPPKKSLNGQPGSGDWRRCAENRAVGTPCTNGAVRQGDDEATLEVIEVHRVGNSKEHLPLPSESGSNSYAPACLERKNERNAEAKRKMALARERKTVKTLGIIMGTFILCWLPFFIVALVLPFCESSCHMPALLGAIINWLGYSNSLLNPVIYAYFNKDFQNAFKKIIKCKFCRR
Method: Membrane fragments were prepared from the frontal cortex dissected from brains obtained from female rats (~150 g). The 5HT1A sites were labeled with ^3 H-80H-dipropylaminotetralin (^3 H-80H-DPAT). Membrane fragments, ^3 H-80H-DPAT and an unlabeled test compound were incubated for 10 minutes at 37° C. The tubes were then placed in an ice bath for an additional 10 minutes. Compound bound to the receptor site was separated from the remaining unbound compound by vacuum filtration.
The ability of a nonlabeled compound to compete with ^3 H-80H-DPAT for binding sites was a measure of the compound's affinity for the 5HT1A receptor. Specific binding was determined by the difference between total counts bound and counts bound in the presence of 10^-5 M serotonin.
Data are presented at the IC50, the concentration of nonlabeled compound required to displace 50% of the ^3 H-80H-DPAT specifically bound to 5HT1A binding sites.

5HT2 receptor = target: T2, 5HT2 receptor (Rattus norvegicus, UniProt P14842); experiment: Brain Serotonin 5HT2 Radioreceptor Assay (3H-ketanserin); assay type: binding; conditions: for IC50: rat frontal cortex membranes, 15 minutes, 37° C., read-out: RECEPTOR BINDING 5HT-2 (IC50)
T2 construct: Membrane fragments were prepared from the frontal cortex dissected from brains obtained from female rats; from tissue; host or cells: frontal cortex, female rats
T2 sequence (P14842 whole entry, the tested form may be a part): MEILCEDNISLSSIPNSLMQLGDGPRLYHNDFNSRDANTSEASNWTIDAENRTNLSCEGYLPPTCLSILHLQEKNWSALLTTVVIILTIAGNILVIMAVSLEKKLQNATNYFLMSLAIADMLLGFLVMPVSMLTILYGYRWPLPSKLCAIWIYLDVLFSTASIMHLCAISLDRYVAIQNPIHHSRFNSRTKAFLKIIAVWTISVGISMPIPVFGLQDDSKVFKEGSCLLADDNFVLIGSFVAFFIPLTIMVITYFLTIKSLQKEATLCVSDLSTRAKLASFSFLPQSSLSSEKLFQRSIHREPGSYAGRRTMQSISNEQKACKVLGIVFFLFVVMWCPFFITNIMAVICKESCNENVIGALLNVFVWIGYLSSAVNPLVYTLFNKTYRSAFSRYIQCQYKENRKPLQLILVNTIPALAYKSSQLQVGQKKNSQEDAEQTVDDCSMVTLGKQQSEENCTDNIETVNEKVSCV
Method: Membrane fragments were prepared from the frontal cortex dissected from brains obtained from female rats (~150 g). The 5HT2 sites were labeled with ^3 H-ketanserin. Membrane fragments, ^3 H-ketanserin and an unlabeled test compound were incubated for 15 minutes at 37° C. Compound bound to the receptor site was separated from the remaining unbound compound by vacuum filtration.
The ability of a nonlabeled compound to compete with ^3 H-ketanserin for binding sites was a measure of the compound's affinity for the 5HT2 receptor. Specific binding was determined by the difference between total counts bound and counts bound in the presence of 10^-6 M methysergide.
Data are presented as the IC50, the concentration of nonlabeled compound required to displace 50% of the ^3 H-ketanserin specifically bound to 5HT2 binding sites.

[3] = target: alpha-1 adrenergic receptor; experiment: Brain Alpha-1 Radioreceptor Assay (3H-prazosin); conditions: guinea pig brain membranes, 30 minutes, 30° C., read-out: RECEPTOR BINDING ALPHA-1 (IC50)
Method: Membrane fragments were prepared from the brains of mature female guinea pigs after removal of the corpus striata. The alpha-1 adrenergic receptor sites were labeled with ^3 H-prazosin. Membrane fragments, ^3 H-prazosin and an unlabeled test compound were incubated for 30 minutes at 30° C. Compound bound to the receptor site was separated from the remaining unbound radioligand by vacuum filtration. Specific binding was determined by the difference between total counts bound and counts bound in the presence of 10-^5 M phentolamine.

`COc1ccccc1N1CCN(CCn2c(=O)c3csc4c3n(c2=O)CCC4OC(=O)c2ccc(Cl)cc2)CC1` (stereo not drawn) [Example 37, 9-(4-Chlorobenzoyloxy)-3,4,5,7,8,9-hexahydro-4-[2-[4-(2-methoxyphenyl)piperazin-1-yl]ethyl]thieno[4,3,2-de]pyrido[1,2-c]pyrimidine-3,5-dione] showed a change in vivo at 5 mg/kg [1] of -30.2%.

For `O=C1CCn2c(=O)n(CCN3CCN(c4ccccc4)CC3)c(=O)c3csc1c32` [Example 4, 3,4,5,7,8,9-Hexahydro-4-[2-(4-phenylpiperazin-1-yl)ethyl]thieno[4,3,2-de]pyrido[1,2-c]pyrimidine-3,5,9-trione], the “% INHIB OF PHENYLEPHRINE RESPONSE” value [2] was 88%.

`Cc1ccccc1N1CCN(CCn2c(=O)c3csc4c3n(c2=O)CCC4=O)CC1` [Example 2, 3,4,5,7,8,9-Hexahydro-4-[2-[4-(2-methylphenyl)piperazin-1-yl]ethyl]thieno[4,3,2-de]pyrido[1,2-c]pyrimidine-3,5,9-trione] was tested, and the “% INHIB OF PHENYLEPHRINE RESPONSE” value [2] was 83% and the change in vivo at 5 mg/kg [1] was -33%.

For `COc1ccccc1N1CCN(CCn2c(=O)c3csc4c3n(c2=O)CCC4OC(C)=O)CC1` (stereo not drawn) [Example 30, 9-Acetyloxy-3,4,5,7,8,9-hexahydro-4-[2-[4-(2-methoxyphenyl)piperazin-1-yl]ethyl]thieno[4,3,2-de]pyrido[1,2-c]pyrimidine-3,5-dione], the “% INHIB OF PHENYLEPHRINE RESPONSE” value [2] was 100% and the change in vivo at 5 mg/kg [1] was -33.2%.

`COc1ccccc1N1CCN(CCn2c(=O)c3csc4c3n(c2=O)CCCC4=O)CC1` [Example 15, 4,7,8,9-Tetrahydro-4-[2-[4-(2-methoxyphenyl)-piperazin-1-yl]ethyl]thieno[4,3,2-de]pyrimido[3,4-a]azepine-3,5,10-trione] was tested, and the change in vivo at 5 mg/kg [1] was -29.8%.

For `CON=C1CCn2c(=O)n(CCN3CCN(c4ccccc4OC)CC3)c(=O)c3csc1c32` [Example 26, 3,4,5,7,8,9-Hexahydro-9-methoxyimino-4-[2-[4-(2-methoxyphenyl)piperazin-1-yl]ethyl]-thieno[4,3,2-de]pyrido[1,2-c]pyrimidine-3,5-dione], the “% INHIB OF PHENYLEPHRINE RESPONSE” value [2] was 72%, the IC50 (5HT1A receptor) was 0.00072 µM and the IC50 (5HT2 receptor) was 2 µM. For the same compound, the IC50 [3] was 0.04 µM.

`COc1cccc(N2CCN(CCn3c(=O)c4csc5c4n(c3=O)CCC5=O)CC2)c1` [Example 5, 3,4,5,7,8,9-Hexahydro-4-[2-[4-(3-methoxyphenyl)piperazin-1-yl]ethyl]thieno[4,3,2-de]pyrido[1,2-c]pyrimidine-3,5,9-trione] was tested, and the “% INHIB OF PHENYLEPHRINE RESPONSE” value [2] was 41%.

In the case of `CCCCCC(=O)OC1CCn2c(=O)n(CCN3CCN(c4ccccc4OC)CC3)c(=O)c3csc1c32` (stereo not drawn) [Example 32, 3,4,5,7,8,9-Hexahydro-4-[2-[4-(2-methoxyphenyl)piperazin-1-yl]ethyl]-9-(hexanoyloxy)thieno[4,3,2-de]pyrido[1,2-c]pyrimidine-3,5-dione], the “% INHIB OF PHENYLEPHRINE RESPONSE” value [2] is reported as 90%.

In the case of `O=C1CCn2c(=O)n(CCN3CCN(c4ccccc4Cl)CC3)c(=O)c3csc1c32` [Example 3, 4-[2-[4-(2-Chlorophenyl)piperazin-1-yl]ethyl]3,4,5,7,8,9-hexahydrothieno[4,3,2-de]pyrido[1,2-c]pyrimidine-3,5,9-trione], the “% INHIB OF PHENYLEPHRINE RESPONSE” value [2] is reported as 55%.

In the case of `O=C1CCn2c(=O)n(CCN3CCN(c4ccc(F)cc4)CC3)c(=O)c3csc1c32` [Example 9, 3,4,5,7,8,9-Hexahydro-4-[2-[4-(4-fluorophenyl)piperazin-1-yl]ethyl]thieno[4,3,2-de]pyrido[1,2-c]pyrimidine-3,5,9-trione], the change in vivo at 5 mg/kg [1] is reported as -21.5%.

Work on `COc1ccccc1N1CCN(CCn2c(=O)c3csc4c3n(c2=O)CCC4OC(=O)C(C)C)CC1` (stereo not drawn) [Example 33, 3,4,5,7,8,9-Hexahydro-9-(2-methylpropanoyloxy)-4-[2-[4-(2-methoxyphenyl)piperazin-1-yl]ethyl]thieno[4,3,2-de]pyrido[1,2-c]pyrimidine-3,5-dione] yielded a change in vivo at 5 mg/kg [1] of -32%.

`COc1ccccc1N1CCN(CCn2c(=O)c3c(C)sc4c3n(c2=O)CCC4O)CC1` (stereo not drawn) [Example 23, 3,4,5,7,8,9-Hexahydro-9-hydroxy-4-[2-[4-(2-methoxyphenyl)piperazin-1-yl]ethyl]-2-methyl-thieno[4,3,2-de]pyrido[1,2-c]pyrimidine-3,5-dione] showed a change in vivo at 5 mg/kg [1] of -27.4%.

`COc1ccccc1N1CCN(CCn2c(=O)c3csc4c3n(c2=O)CCC4N)CC1` (stereo not drawn) [Example 38, 9-Amino-3,4,5,7,8,9-hexahydro-4-[2-[4-(2-methoxyphenyl)piperazin-1-yl]ethyl]thieno[4,3,2-de]pyrido[1,2-c]pyrimidine-3,5-dione] showed an IC50 (5HT1A receptor) of 0.05 µM, an IC50 (5HT2 receptor) of 0.8 µM and a change in vivo at 2.5 mg/kg ([1]; dose 2.5 mpk) of -30.1%. The IC50 [3] was 0.01 µM.

`COc1ccc(N2CCN(CCn3c(=O)c4csc5c4n(c3=O)CCC5=O)CC2)cc1` [Example 8, 3,4,5,7,8,9-Hexahydro-4-[2-[4-(4-methoxyphenyl)piperazin-1-yl]ethyl]thieno[4,3,2-de]pyrido[1,2-c]pyrimidine-3,5,9-trione] was tested, and the “% INHIB OF PHENYLEPHRINE RESPONSE” value [2] was 40%.

`COc1ccccc1N1CCN(CCn2c(=O)c3scc4c3n(c2=O)CCC4=O)CC1` [Example 14, 7.8-Dihydro-4-[2-[4-(2-methoxyphenyl)-piperazin-1-yl]ethyl]thieno[2,3,4-de]pyrido[1,2-c]pyrimidine-3,5,9-trione] was tested, and the IC50 (5HT1A receptor) was 0.066 µM, the IC50 (5HT2 receptor) was 1.5 µM and the change in vivo at 5 mg/kg [1] was -30%. It also gave an IC50 [3] of 0.006 µM.

For `COc1ccccc1N1CCN(CCn2c(=O)c3c(C)sc4c3n(c2=O)CCC4=O)CC1` [Example 13, 3,4,5,7,8,9-Hexahydro-2-methyl-4-[2-[4-(2-methoxyphenyl)piperazin-1-yl]ethyl]thieno[4,3,2-de]pyrido[1,2-c]pyrimidine-3,5,9-trione], the “% INHIB OF PHENYLEPHRINE RESPONSE” value [2] was 88%.

For `CCCC(=O)OC1CCn2c(=O)n(CCN3CCN(c4ccccc4OC)CC3)c(=O)c3csc1c32` (stereo not drawn) [Example 31], the “% INHIB OF PHENYLEPHRINE RESPONSE” value [2] was 100%.

For `COc1ccccc1N1CCN(CCn2c(=O)c3csc4c3n(c2=O)CCC4OC(=O)C(C)(C)C)CC1` (stereo not drawn) [Example 34, 3,4,5,7,8,9-Hexahydro-4-[2-[4-(2-methoxyphenyl)piperazin-1-yl]ethyl]-9-[(2,2-dimethyl)propanoyloxy]thieno[4,3,2-de]pyrido[1,2-c]pyrimidine-3,5-dione], the change in vivo at 5 mg/kg [1] was -26%.

`COc1ccc(C(=O)OC2CCn3c(=O)n(CCN4CCN(c5ccccc5OC)CC4)c(=O)c4csc2c43)cc1` (stereo not drawn) [Example 36, 3,4,5,7,8,9-Hexahydro-9-(4-methoxy)benzoyloxy-4-[2-[4-(2-methoxyphenyl)piperazin-1-yl]ethyl]thieno[4,3,2-de]pyrido[1,2-c]pyrimidine-3,5-dione] gave a change in vivo at 5 mg/kg [1] of -14%.

Work on `CON=C1CCCn2c(=O)n(CCN3CCN(c4ccccc4OC)CC3)c(=O)c3csc1c32` [Example 27, 4,7,8,9-Tetrahydro-10-methoxyimino-4-[2-[4-(2-methoxyphenyl)piperazin-1-yl]ethyl]thieno[4,3,2-de]pyrimido[3,4-a]azepine-3,5-dione] yielded an IC50 (5HT1A receptor) of 0.07 µM, an inhibition at 1 µM (5HT2 receptor; 0.25 h, @ 10^-6, rat frontal cortex membranes, read-out: RECEPTOR BINDING 5HT-2, % @ 10^-6) of 11% and an IC50 [3] of 0.00014 µM.
